From US8207119B2, “Ophthalmological composition” (Nihon Tenganyaku Kenkyusho Co., Ltd., priority 2002, dated 2012) come the findings set out here.

In experiment [1] the test system is rabbit corneal wound model. The experiment in a line: Corneal wound healing promotion action 1 (in vivo), approx. 6 mm corneal epithelial abrasion. More on the design: species or system Japanese white rabbit. To be noted: 5 μM eye drop, 30 μl per instillation; 0 hr after abrasion; mean ± SD, n=6. The protocol: (2) Corneal Wound Healing Promotion Action 1 (In Vivo)
Using a male Japanese white rabbit, a wound of approximately 6 mm in diameter was produced in the cornea by inducing corneal epithelial abrasion in accordance with the method of Cintron et al. (Ophthalmic Res., 11, pp. 90-96 (1979)). The wound area was measured using the fluorescein-stained area as an index. The effects of the test compound on corneal wound healing were examined.
The eye drops containing the respective concentrations of the test compound were instilled (30 μl at a time) at 0, 3, 6, 9, 12, 18, 24, 27, 30, 33, 36, 42, and 48 hours after inducing corneal epithelial abrasion. In measuring the wound area, fluorescein staining was carried out and a photograph of the cornea was measured. The fluorescein-stained area of the photographed cornea was computed using an image analysis processing system.
In Tables 1 and 2, the respective values indicate the mean value±standard deviation (n=6). Statistical analysis was carried out using Dunnett's multiple comparison with respect to PBS with the area of the corneal wound portion immediately after (0 hours after) corneal epithelial abrasion being set to 100% (*p<0.05, **p<0.01; vs. control).

Experiment [2] deals with rabbit corneal wound model. The experiment in a line: Corneal wound healing promotion action 2 (in vivo), approx. 8 mm corneal epithelial abrasion. More on the design: species or system Japanese white rabbit. Particulars: 0.3% eye drop, 25 μl per instillation; 0 hr after abrasion; mean ± SD, n=6. As for the experimental part: (3) Corneal Wound Healing Promotion Action 2 (In vivo)
Using the same method as (2) above, corneal epithelial abrasion was induced in a Japanese white rabbit to produce a wound of approximately 8 mm in diameter in the cornea. The wound area was measured using the fluorescein-stained area as an index to examine the effects on corneal wound healing.
The eye drops containing the respective concentrations of the test compound were instilled (25 μl at a time) at 0, 6, 12, 18, 24, 30, 36, 42, 48, and 54 hours after induction corneal epithelial abrasion. In measuring the wound area, fluorescein staining was carried out and a photograph of the cornea was measured. The fluorescein-stained area of the photographed cornea was computed using an image analysis processing system.
In Tables 3 and 4, the respective values indicate the mean value±standard deviation (n=6). Statistical analysis was carried out using Dunnett's multiple comparison with respect to physiological saline with the area of the corneal wound portion immediately after (0 hours after) corneal epithelial abrasion being set to 100% (*p<0.05, **p<0.01; vs. control).

On to “EGF: polypeptide with a molecular weight of 6000, mitosis-promoting growth factor for corneal epithelium (NSDSECPLSHDGYCLHDGVCMYIEALDKYACNCVVGYIGERCQYRDLKWWELR; Epidermal growth factor; UniProt P01133 971-1023, looked up)”, for which, in experiment [1], the “Healing ratio (%)” value was 0%.

For hyaluronic acid, the “Healing ratio (%)” value in experiment [2] turned out to be 0%.
